{
  "source": "patent US12643859B2",
  "about": "“Pyridyl oxycarboxylic acid oxime derivative and preparation method therefor, weeding composition and application thereof” (Qingdao Kingagroot Chemical Compound Co., Ltd., priority 2018, dated 2026)",
  "type_in_all_cases": "in vivo",
  "key": {"Sagittaria trifolia": {"tested_on": "Sagittaria trifolia", "experiment": "Weed control effect evaluation in rice field", "conditions": "1000 g a.i./ha, paddy water application at primary leaf stage, 14 days after treatment; weeds resistant to pyrazosulfuron-ethyl and penoxsulam", "from_the_text": "(§1) The above described growth inhibition rate is fresh weight inhibition rate.\n(§2) Transplanted rice safety evaluation and weed control effect evaluation in rice field: Rice field soil was loaded into a 1/1,000,000 ha pot. The seeds of Scirpus juncoides, Sagittaria trifolia and Monochoria vaginalis were sowed and gently covered with soil, then left to stand still in greenhouse in the state of 0.5-1 cm of water storage. The tuber of Sagittaria trifolia was planted in the next day or 2 days later. It was kept at 3-4 cm of water storage thereafter. The weeds were treated by dripping the WP or SC water diluents prepared according to the common preparation method of the compounds of the present invention with pipette homogeneously to achieve specified effective amount when Scirpus juncoides, and Monochoria vaginalis reached 0.5 leaf stage and Sagittaria trifolia reached the time point of primary leaf stage.\n(§3) The fertility condition of Scirpus juncoides, Sagittaria trifolia and Monochoria vaginalis 14 days after the treatment of the compound of the invention and the fertility condition of rice 21 days after the treatment of the compound of the invention respectively with the naked eye. Evaluate the weed control effect with 0-5 activity standard level. Many compounds show excellent activity and selectivity."}, "Monochoria Vaginalis": {"tested_on": "Monochoria Vaginalis", "experiment": "Weed control effect evaluation in rice field", "conditions": "1000 g a.i./ha, paddy water application at 0.5 leaf stage, 14 days after treatment; weeds resistant to pyrazosulfuron-ethyl and penoxsulam", "from_the_text": "as §1, §2, §3"}, "Scirpus juncoides": {"tested_on": "Scirpus juncoides", "experiment": "Weed control effect evaluation in rice field", "conditions": "1000 g a.i./ha, paddy water application at 0.5 leaf stage, 14 days after treatment; weeds resistant to pyrazosulfuron-ethyl and penoxsulam", "from_the_text": "as §1, §2, §3"}, "Cyperus iria": {"tested_on": "Cyperus iria", "experiment": "Post-emergence test experiment, weed control", "conditions": "post-emergence spray, 600 g a.i./ha plus water 450 kg/ha, 3 weeks in greenhouse", "experimental": "as §1\n(§4) Post-emergence test experiment: Monocotyledonous and dicotyledonous weed seeds and main crop seeds (i. e. wheat, corn, rice, soybean, cotton, oilseed, millet and sorghum.) were put into a plastic pot loaded with soil. Then covered with 0.5-2 cm soil, the seeds were allowed to grow in good greenhouse environment. The test plants were treated at 2-3 leaf stage 2 weeks after sowing. The test compounds of the invention were dissolved with acetone respectively, then added with tween-80, and using 1.5 liters per hectare of an emulsible concentrate of methyl oleate as a synergist, and diluted by certain amount of water to certain concentration. The solution was sprayed to the plants with a sprayer. Then the plants were cultured for 3 weeks in the greenhouse, and the experiment result of weed controlling effect was listed in tables 3-4."}, "[1]": {"tested_on": "Monocotyledonous and dicotyledonous weed seeds and main crop seeds", "experiment": "Post-emergence test experiment (Table 3, 1000 g a.i./ha)", "conditions": "3 weeks in greenhouse, fresh weight inhibition", "method_in_brief": "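Weeds and crops (wheat, corn, rice, soybean, cotton, oilseed, millet, sorghum) grown in soil in the greenhouse and sprayed post-emergence at 2–3 leaf stage, 2 weeks after sowing. Compound in acetone with tween-80 plus methyl oleate emulsible concentrate (1.5 L/ha) as synergist, diluted in water. Fresh weight inhibition scored after 3 weeks.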"}, "Rice": {"tested_on": "Rice", "experiment": "Transplanted rice safety evaluation", "conditions": "1000 g a.i./ha, transplanted 3 leaf stage japonica rice, treated 5 days after transplantation, 21 days after treatment", "experimental": "as §1\nIn addition, the rice field soil that loaded into the 1/1,000,000 ha pot was leveled to keep water storage at 3-4 cm depth. The 3 leaf stage rice (japonica rice) was transplanted at 3 cm of transplanting depth the next day. The compound of the present invention was treated by the same way after 5 days of transplantation.\nas §3, with “level.” for “level. Many compounds show excellent activity and selectivity.”"}, "Indica rice": {"tested_on": "Indica rice", "experiment": "Post-emergence test experiment, crop selectivity", "conditions": "post-emergence spray, 600 g a.i./ha plus water 450 kg/ha, 3 weeks in greenhouse", "experimental": "as §1, §4"}, "Japonica rice": {"tested_on": "Japonica rice", "experiment": "Post-emergence test experiment, crop selectivity", "conditions": "post-emergence spray, 600 g a.i./ha plus water 450 kg/ha, 3 weeks in greenhouse", "experimental": "as §1, §4"}},
  "data": [
    {"compound": "CCOC(=NOC(=O)C(C)Oc1nc(F)c(Cl)c(N)c1Cl)c1ccc(NC(C)=O)cc1", "note": "(centres unmarked) [Compound 88]", "values": [
      {"measurement": "Weed control effect, 0-5 activity standard level, Sagittaria trifolia", "setting": "Sagittaria trifolia", "value": "4 (Level 4: the growth inhibition rate is equal to or greater than 60% and less than 85%)"},
      {"measurement": "Weed control effect, 0-5 activity standard level, Monochoria Vaginalis", "setting": "Monochoria Vaginalis", "value": "5 (Level 5: the growth inhibition rate is greater than 85%)"},
      {"measurement": "Weed control effect, 0-5 activity standard level, Scirpus juncoides", "setting": "Scirpus juncoides", "value": "4 (Level 4: the growth inhibition rate is equal to or greater than 60% and less than 85%)"},
      {"measurement": "Activity level (fresh weight growth inhibition rate), Cyperus iria", "setting": "Cyperus iria", "value": "5 (Level 5: the growth inhibition rate is greater than 85%)"},
      {"measurement": "Activity level (growth inhibition rate) Digitaria sanguinalis", "setting": "[1]; Digitaria sanguinalis", "value": "5 (Level 5: the growth inhibition rate is greater than 85%)"},
      {"measurement": "Activity level (growth inhibition rate) Echinochloa crusgalli", "setting": "[1]; Echinochloa crusgalli", "value": "5 (Level 5: the growth inhibition rate is greater than 85%)"},
      {"measurement": "Activity level (growth inhibition rate) Galium spurium", "setting": "[1]; Galium spurium", "value": "5 (Level 5: the growth inhibition rate is greater than 85%)"},
      {"measurement": "Activity level (growth inhibition rate) Leptochloa chinensis", "setting": "[1]; Leptochloa chinensis", "value": "5 (Level 5: the growth inhibition rate is greater than 85%)"},
      {"measurement": "Activity level (growth inhibition rate) Monochoria Vaginalis", "setting": "[1]; Monochoria Vaginalis", "value": "5 (Level 5: the growth inhibition rate is greater than 85%)"},
      {"measurement": "Activity level (growth inhibition rate) Murdannia triquetra", "setting": "[1]; Murdannia triquetra", "value": "5 (Level 5: the growth inhibition rate is greater than 85%)"},
      {"measurement": "Activity level (growth inhibition rate) Setaria viridis", "setting": "[1]; Setaria viridis", "value": "5 (Level 5: the growth inhibition rate is greater than 85%)"},
      {"measurement": "Safety, 0-5 activity standard level, Rice", "setting": "Rice", "value": "0 (Level 0: the growth inhibition rate is less than 5%)"},
      {"measurement": "Activity level (fresh weight growth inhibition rate), Indica rice", "setting": "Indica rice", "value": "0 (Level 0: the growth inhibition rate is less than 5%)"},
      {"measurement": "Activity level (fresh weight growth inhibition rate), Japonica rice", "setting": "Japonica rice", "value": "0 (Level 0: the growth inhibition rate is less than 5%)"}
    ]}
  ]
}
